From US7122550B2, “Protein kinase inhibitors” (Cytopia Pty Ltd, priority 2002, dated 2006) come the findings set out here.

Where only a bound is given, the exact number is not on record here.

What all share (assay type): cell-based
One assay has as its target T1, Tel-Jak3 (Homo sapiens, UniProt P52333).
T1 construct: TEL (ETV6, human P41212) N-terminal part encoded by nucleotides 1-487 of TEL; expressed in transfected cells; host or cells: BaF3 (murine) bearing pTET-off, transfected with pTELJAK3 (pTRE2 vector); the other entry of the earlier key: ETV6 (P41212, Transcription factor ETV6)
Put plainly: Cellular growth inhibition assay (MTT), Tel-Jak3 transformed BaF3 cell line. The note with it: 40 hr incubation, read-out: Jak3: growth inhibitory activity (>50%) in transformed cell line Tel-Jak3. An excerpt: (§1) The coding region encompassing nucleotides 1–487 of TELwas amplified by PCR using the oligonucleotides 5TEL (5′-GGAGGATCCTGATCTCTCTCGCTGTGAGAC-3′) and 3TEL (5′-AGGC GTCGACTTCTTCTTCATGGTTCTG-3′) and U937 mRNA as template. A BamHI site was present into the 5TEL Primer, a SalI site was incorporated into the 3TEL primer. The regions encompassing the kinase domains of JAK2 (nucleotides 2994–3914; JAK2F 5′-ACGC GTCGACGGTGCCTTTGAAGACCGGGAT-3′; JAK2R 5′-ATAGTTTAGCGGCCGCTCAGAATGAAGGTCATTT-3′) and JAK3 (nucleotides 2520–3469; JAK3F 5′-GAAGTCGACTATGCCTGCCAAGACCCCACGATCTT-3′; JAK3R 5′-GGATCTAGACTATGAAAAGGACAGGGAGTGGTGTTT-3′) were generated by PCR using Taq DNA Polymerase (Gibco/BRL) and U937 mRNA as template. A SalI site was incorporated into the forward primer of JAK2 and JAK3, a NotI site was incorporated into the JAK2 reverse primer and a Xba I site was added to the reverse primer of JAK3.
(§2) A TEL/Jak2 fusion was generated by digestion of the TELPCR product with BamHI/SalI, digestion of the JAK2 PCR product with SalI/NotI followed by ligation and subcloning into the mammalian expression Vector pTRE 2 (Clontech) digested with BamHI-NotI (pTELJAK2). For JAK3 SalI/NotI cleaved kinase domain PCR product was ligated with BamHI/SalI cleaved TELproduct followed by ligation into BamHI/NotI cleaved pTRE2 (pTELJAK3).
(§3) The growth factor dependent myelomonocytic cell line BaF3 bearing the pTET-off plasmid (Clontech) was transfected with either pTELJAK2 or pTELJAK3 and the cells selected for factor independent growth. BaF 3 wild type cells were cultured in DMEM 10% FCS, 10% WEHI 3B conditioned medium. BaF3 TELJAK cells were cultured in DMEM 10% Tet-System Approved FBS (without WEHI 3B conditioned medium).
(§4) Cell suspensions were prepared by harvesting cells from culture. (Cells used in this test should be in later log phase growth and high viability.) Cells were diluted in correct growth medium to 1.1×final concentration (from 50000 cell/mL to 200,000 cell/mL, depending on cell line).
(§5) Compounds to be tested were added (10 μL, 10×final concentration) to a flat bottom 96-well plate. The cellular suspension (90 μL per well) was added, and the plate incubated for 40 hr at 37° C., 5% CO2. MTT (20 μL per well, 5 mg/mL in PBS) was added and the plates were returned to the incubator for a further 6 hours. Lysis buffer (100 μL per well, 10% SDS, 0.01N HCl) was added and the plate stored in the incubator overnight. The plate was then read at 590 nm.

The test system of a further assay is DU145. The assay can be described thus: Cellular growth inhibition assay (MTT), DU145 cells. The note with it: Homo sapiens, DU-145, 40 hr incubation, read-out: DU145: growth inhibitory activity. The method, then: as §4, §5
Another assay addresses T2, Tel-Jak2 (Homo sapiens, UniProt O60674).
T2 construct: The regions encompassing the kinase domains of JAK2 (nucleotides 2994–3914); TEL (ETV6, human P41212) N-terminal part encoded by nucleotides 1-487 of TEL; expressed in transfected cells; host or cells: BaF3 (murine) bearing pTET-off, transfected with pTELJAK2 (pTRE2 vector); the other entry of the earlier key: ETV6 (P41212, Transcription factor ETV6)
Put plainly: Cellular growth inhibition assay (MTT), Tel-Jak2 transformed BaF3 cell line. Particulars: 40 hr incubation, read-out: Jak2: growth inhibitory activity (>50%) in transformed cell line Tel-Jak2.
Description: as §1, §2, §3, §4, §5

T2 sequence (O60674 with tags, fused parts or gaps): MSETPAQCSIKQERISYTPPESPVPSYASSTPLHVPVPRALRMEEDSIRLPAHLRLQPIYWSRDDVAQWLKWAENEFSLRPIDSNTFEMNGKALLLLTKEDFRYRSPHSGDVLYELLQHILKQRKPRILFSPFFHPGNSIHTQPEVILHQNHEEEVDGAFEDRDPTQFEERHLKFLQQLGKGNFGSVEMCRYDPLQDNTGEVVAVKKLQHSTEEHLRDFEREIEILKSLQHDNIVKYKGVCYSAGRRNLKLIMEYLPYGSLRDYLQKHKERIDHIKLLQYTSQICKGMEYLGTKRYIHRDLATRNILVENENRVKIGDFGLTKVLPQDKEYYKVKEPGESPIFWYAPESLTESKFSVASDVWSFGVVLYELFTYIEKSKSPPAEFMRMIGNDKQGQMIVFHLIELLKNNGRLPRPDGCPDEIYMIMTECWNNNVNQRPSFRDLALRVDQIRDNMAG
T1 sequence (P52333 with tags, fused parts or gaps): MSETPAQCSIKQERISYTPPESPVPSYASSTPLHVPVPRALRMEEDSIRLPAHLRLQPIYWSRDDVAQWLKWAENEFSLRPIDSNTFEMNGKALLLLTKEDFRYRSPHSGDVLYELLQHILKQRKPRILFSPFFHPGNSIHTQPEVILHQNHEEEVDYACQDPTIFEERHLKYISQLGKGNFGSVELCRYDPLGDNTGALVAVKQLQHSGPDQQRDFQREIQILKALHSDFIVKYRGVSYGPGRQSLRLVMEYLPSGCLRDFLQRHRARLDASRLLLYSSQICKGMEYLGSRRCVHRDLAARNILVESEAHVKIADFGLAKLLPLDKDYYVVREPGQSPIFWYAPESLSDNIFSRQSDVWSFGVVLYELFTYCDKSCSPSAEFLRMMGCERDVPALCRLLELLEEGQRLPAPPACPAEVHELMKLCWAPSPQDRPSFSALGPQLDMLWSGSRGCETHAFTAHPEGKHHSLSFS

As to `COc1cc(-c2cncc(NC(C)c3ccc(-n4ccnc4)cc3)n2)ccc1O` (stereo not drawn) [Chemistry 186], the inhibition at 50 µM at Tel-Jak3 is above 50%; in the assay with DU145, below 50%; on Tel-Jak2, above 50%.

For `COc1cc(-c2cncc(NC(C)c3cccnc3)n2)ccc1O` (stereo not drawn) [Chemistry 187], the inhibition at 50 µM at Tel-Jak3, in the assay on DU145 and on Tel-Jak2 was above 50% each time.

In the case of `C[C@H](Nc1cncc(-c2ccc(NS(C)(=O)=O)cc2)n1)c1ccccc1` [Chemistry 192], the inhibition at 50 µM on Tel-Jak3, in the assay on DU145 and on Tel-Jak2 was above 50% in each case.

For `C[C@H](Nc1cncc(-c2ccc(NC(=O)C3CC3)cc2)n1)c1ccccc1` [Chemistry 193], the inhibition at 50 µM on Tel-Jak3, in the assay on DU145 and on Tel-Jak2 was above 50% throughout.

For the molecule `COc1cc(-c2cncc(NC(C)c3ccncc3)n2)ccc1O` (stereo not drawn) [Chemistry 200], the figures for the inhibition at 50 µM on Tel-Jak3, in the assay with DU145 and on Tel-Jak2 were above 50%, below 50% and above 50%, respectively.

Take `C[C@H](Nc1cncc(-c2ccc(NS(=O)(=O)c3ccccc3)cc2)n1)c1ccccc1` [Chemistry 226]: the inhibition at 50 µM on Tel-Jak3, in the assay with DU145 and on Tel-Jak2 was above 50% each time.

Turning to `COc1cc(-c2cncc(NC(C)c3cccc(NC(=O)N4CCN(C)CC4)c3)n2)ccc1O` (stereo not drawn) [Chemistry 241], the inhibition at 50 µM on Tel-Jak3 was above 50%; with DU145, below 50%; on Tel-Jak2, above 50%.

On to `COc1cc(-c2cncc(NC(C)c3ccc(-c4ccncc4)cc3)n2)ccc1O` (stereo not drawn) [Chemistry 266], for which the inhibition at 50 µM on Tel-Jak3, in the assay on DU145 and on Tel-Jak2 was above 50% each time.

As to `COc1cc(-c2cncc(NC(C)c3cccc(NC(=O)C4CCCN4)c3)n2)ccc1O` (stereo not drawn) [Chemistry 267], the inhibition at 50 µM on Tel-Jak3, in the assay with DU145 and at Tel-Jak2 was above 50% throughout.

With `COc1cc(-c2cncc(NC(C)c3cccc(NC(=O)c4cccnc4)c3)n2)ccc1O` (stereo not drawn) [Chemistry 268], the inhibition at 50 µM at Tel-Jak3, in the assay on DU145 and at Tel-Jak2 was above 50% each time.

For `COc1cc(-c2cncc(NC(C)c3cccc(NC(=O)c4ccncc4)c3)n2)ccc1O` (stereo not drawn) [Chemistry 269], the inhibition at 50 µM at Tel-Jak3, in the assay on DU145 and on Tel-Jak2 was above 50% throughout.

Take `COc1cc(-c2cncc(NC(C)c3ccc(-c4cccnc4)cc3)n2)ccc1O` (stereo not drawn) [Chemistry 270]: the inhibition at 50 µM on Tel-Jak3, with DU145 and at Tel-Jak2 was above 50% in each case.

In the case of `COc1cc(-c2cncc(NC(C)c3cccc(NC(C)=O)c3)n2)ccc1O` (stereo not drawn) [Chemistry 276], the inhibition at 50 µM is above 50% on Tel-Jak3, below 50% with DU145 and above 50% at Tel-Jak2.

For the molecule `COc1cc(-c2cncc(NC(C)c3ccc(NC(=O)c4ccncc4)cc3)n2)ccc1O` (stereo not drawn) [Chemistry 279], the inhibition at 50 µM on Tel-Jak3, with DU145 and at Tel-Jak2 was above 50% each time.

Take `COc1cc(-c2cncc(NC(C)c3ccc(NC(=O)c4cccnc4)cc3)n2)ccc1O` (stereo not drawn) [Chemistry 280]: the inhibition at 50 µM at Tel-Jak3 is above 50%; with DU145 it was below 50%; at Tel-Jak2, above 50%.

With `COc1cc(-c2cncc(NC(C)c3ccc(NC(=O)C4CCCN4C(=O)OC(C)(C)C)cc3)n2)ccc1O` (stereo not drawn) [Chemistry 281], the inhibition at 50 µM on Tel-Jak3, in the assay with DU145 and on Tel-Jak2 was above 50% in each case.

In the case of `COc1cc(-c2cncc(NC(C)c3ccc(NC(=O)CN4CCN(C)CC4)cc3)n2)ccc1O` (stereo not drawn) [Chemistry 282], the inhibition at 50 µM at Tel-Jak3, with DU145 and on Tel-Jak2 was above 50% in each case.

As for `COc1cc(-c2cncc(NC(C)c3ccc(NC(=O)N4CCN(C)CC4)cc3)n2)ccc1O` (stereo not drawn) [Chemistry 283], the inhibition at 50 µM on Tel-Jak3, in the assay on DU145 and on Tel-Jak2 was above 50% in each case.

For the molecule `CCN(CC)CCOc1ccc(C(C)Nc2cncc(-c3ccc(O)c(OC)c3)n2)cc1` (stereo not drawn) [Chemistry 285], the inhibition at 50 µM at Tel-Jak3, in the assay on DU145 and on Tel-Jak2 was above 50% in each case.

As to `COc1cc(-c2cncc(NC(C)c3ccc(C#N)cc3)n2)ccc1O` (stereo not drawn) [Chemistry 303], the inhibition at 50 µM at Tel-Jak3 was above 50%; in the assay on DU145 it was below 50%; on Tel-Jak2 it was above 50%.

`COc1cc(-c2cncc(NC(C)c3ccc(C(N)=O)cc3)n2)ccc1O` (stereo not drawn) [Chemistry 304]: the inhibition at 50 µM at Tel-Jak3 is above 50%; in the assay with DU145, below 50%; on Tel-Jak2, above 50%.

`COc1cc(-c2cncc(NC(C)c3ccc(NCCN4CCN(C)CC4)cc3)n2)ccc1O` (stereo not drawn) [Chemistry 318]: the inhibition at 50 µM is above 50% at Tel-Jak3, below 50% in the assay on DU145 and above 50% at Tel-Jak2.

For `COc1cc(-c2cncc(NC(C)c3ccc(N)cc3)n2)ccc1O` (stereo not drawn) [Chemistry 319], the inhibition at 50 µM at Tel-Jak3 is above 50%; in the assay on DU145, below 50%; at Tel-Jak2 it was above 50%.

As to `COc1cc(-c2cncc(NC(C)c3ccc(NCc4cccnc4)cc3)n2)ccc1O` (stereo not drawn) [Chemistry 320], the figures for the inhibition at 50 µM on Tel-Jak3, with DU145 and on Tel-Jak2 were above 50%, below 50% and above 50%, respectively.

For the molecule `COc1cc(-c2cncc(NC(C)c3ccc(C(=O)O)cc3)n2)ccc1O` (stereo not drawn) [Chemistry 324], the inhibition at 50 µM at Tel-Jak3, with DU145 and on Tel-Jak2 was below 50% throughout.

On to `COc1cc(-c2cncc(NC(C)c3ccc(C(=O)NCCN(C)C)cc3)n2)ccc1O` (stereo not drawn) [Chemistry 352], for which the inhibition at 50 µM was above 50% on Tel-Jak3, below 50% in the assay with DU145 and above 50% on Tel-Jak2.

For the molecule `COc1cc(-c2cncc(NC(C)c3ccc(C(=O)NCC4CC4)cc3)n2)ccc1O` (stereo not drawn) [Chemistry 354], the inhibition at 50 µM on Tel-Jak3 is above 50%; with DU145 it was below 50%; at Tel-Jak2 it was above 50%.

On to `CNC(=O)c1ccc(C(C)Nc2cncc(-c3ccc(O)c(OC)c3)n2)cc1` (stereo not drawn) [Chemistry 370], for which the figures for the inhibition at 50 µM on Tel-Jak3, with DU145 and on Tel-Jak2 were above 50%, below 50% and above 50%, respectively.

As for `COc1cc(-c2cncc(NC(C)c3ccc(C(=O)NCc4cccnc4)cc3)n2)ccc1O` (stereo not drawn) [Chemistry 372], the inhibition at 50 µM on Tel-Jak3 is above 50%; in the assay with DU145, below 50%; on Tel-Jak2 it was above 50%.

With `COc1cc(-c2cncc(NC(C)c3ccc(C(=O)NCCO)cc3)n2)ccc1O` (stereo not drawn) [Chemistry 374], the inhibition at 50 µM on Tel-Jak3 is above 50%; with DU145, below 50%; at Tel-Jak2 it was above 50%.
